The values below come from ChEMBL document CHEMBL5465560, “Selectivity Literature for EUbOPEN Chemogenomic Library” (2024).

For experiment [1], the target named is Myosin light chain kinase 2, skeletal/cardiac muscle (Homo sapiens) (UniProt Q9H1R3). Briefly: Selectivity interaction (Ambit KINOMEscan and KiNATiv profiling in Jurkat cells) EUB0000090b MYLK2. In kind it is cell-based. The note with it: at 1 µM.
Experiment [2] concerns the target Angiopoietin-1 receptor (Homo sapiens) (UniProt Q02763). Briefly: Selectivity interaction (KinomeScan (DiscoverX)) EUB0000666a TEK. The note with it: at 10 µM.
Experiment [3] addresses T1, Serine/threonine-protein kinase Chk1 (Homo sapiens) (UniProt O14757).
T1 sequence (whole entry): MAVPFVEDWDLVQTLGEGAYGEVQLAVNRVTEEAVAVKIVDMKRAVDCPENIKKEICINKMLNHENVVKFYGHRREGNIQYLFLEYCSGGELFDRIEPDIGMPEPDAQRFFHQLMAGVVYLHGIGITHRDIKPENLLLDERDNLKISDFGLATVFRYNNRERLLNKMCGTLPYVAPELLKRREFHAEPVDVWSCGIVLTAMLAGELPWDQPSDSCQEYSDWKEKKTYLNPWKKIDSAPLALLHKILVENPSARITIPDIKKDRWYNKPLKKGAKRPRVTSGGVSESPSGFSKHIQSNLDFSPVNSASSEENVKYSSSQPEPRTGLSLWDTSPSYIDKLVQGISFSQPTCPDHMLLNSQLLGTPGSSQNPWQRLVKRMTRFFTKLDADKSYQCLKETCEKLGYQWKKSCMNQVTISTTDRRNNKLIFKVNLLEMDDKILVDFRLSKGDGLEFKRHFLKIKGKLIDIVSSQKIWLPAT
Description: Selectivity interaction (KinomeScan (DiscoverX)) EUB0000666a CHEK1. To be noted: at 10 µM.

For experiment [4], the target named is T2, N-lysine methyltransferase KMT5A (Homo sapiens) (UniProt Q9NQR1).
T2 sequence (whole entry): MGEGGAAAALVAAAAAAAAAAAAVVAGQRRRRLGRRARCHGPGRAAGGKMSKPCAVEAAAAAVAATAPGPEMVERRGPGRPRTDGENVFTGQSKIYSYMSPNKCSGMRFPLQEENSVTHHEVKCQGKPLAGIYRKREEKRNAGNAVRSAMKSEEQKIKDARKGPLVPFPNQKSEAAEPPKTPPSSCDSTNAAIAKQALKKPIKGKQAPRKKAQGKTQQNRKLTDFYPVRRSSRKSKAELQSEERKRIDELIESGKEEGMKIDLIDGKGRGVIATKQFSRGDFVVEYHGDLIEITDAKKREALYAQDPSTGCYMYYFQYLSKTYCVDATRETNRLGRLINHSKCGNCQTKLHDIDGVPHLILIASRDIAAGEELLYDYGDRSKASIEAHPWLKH
Briefly: Selectivity interaction (Methyltransferase screen (Scintillation proximity assays)) EUB0000255b SETD8.

The nature of experiment [5]: Selectivity interaction (KinomeScan (DiscoverX)) EUB0001049a CDK2H. The note with it: at 1 µM.
Experiment [6] has as its system Mast/stem cell growth factor receptor Kit (Homo sapiens), P10721 [V559D,V654A]. Description: (§1) Selectivity interaction (ProQinase) EUB0000171b KIT.
Experiment [7] concerns Mast/stem cell growth factor receptor Kit (Homo sapiens), P10721 [T670I]. The experiment is described as §1.
The test system of experiment [8] is Mast/stem cell growth factor receptor Kit (Homo sapiens), P10721 [V654A]. Described as §1.
Mast/stem cell growth factor receptor Kit (Homo sapiens), P10721 [V654A], sequence (P10721 whole entry V654A): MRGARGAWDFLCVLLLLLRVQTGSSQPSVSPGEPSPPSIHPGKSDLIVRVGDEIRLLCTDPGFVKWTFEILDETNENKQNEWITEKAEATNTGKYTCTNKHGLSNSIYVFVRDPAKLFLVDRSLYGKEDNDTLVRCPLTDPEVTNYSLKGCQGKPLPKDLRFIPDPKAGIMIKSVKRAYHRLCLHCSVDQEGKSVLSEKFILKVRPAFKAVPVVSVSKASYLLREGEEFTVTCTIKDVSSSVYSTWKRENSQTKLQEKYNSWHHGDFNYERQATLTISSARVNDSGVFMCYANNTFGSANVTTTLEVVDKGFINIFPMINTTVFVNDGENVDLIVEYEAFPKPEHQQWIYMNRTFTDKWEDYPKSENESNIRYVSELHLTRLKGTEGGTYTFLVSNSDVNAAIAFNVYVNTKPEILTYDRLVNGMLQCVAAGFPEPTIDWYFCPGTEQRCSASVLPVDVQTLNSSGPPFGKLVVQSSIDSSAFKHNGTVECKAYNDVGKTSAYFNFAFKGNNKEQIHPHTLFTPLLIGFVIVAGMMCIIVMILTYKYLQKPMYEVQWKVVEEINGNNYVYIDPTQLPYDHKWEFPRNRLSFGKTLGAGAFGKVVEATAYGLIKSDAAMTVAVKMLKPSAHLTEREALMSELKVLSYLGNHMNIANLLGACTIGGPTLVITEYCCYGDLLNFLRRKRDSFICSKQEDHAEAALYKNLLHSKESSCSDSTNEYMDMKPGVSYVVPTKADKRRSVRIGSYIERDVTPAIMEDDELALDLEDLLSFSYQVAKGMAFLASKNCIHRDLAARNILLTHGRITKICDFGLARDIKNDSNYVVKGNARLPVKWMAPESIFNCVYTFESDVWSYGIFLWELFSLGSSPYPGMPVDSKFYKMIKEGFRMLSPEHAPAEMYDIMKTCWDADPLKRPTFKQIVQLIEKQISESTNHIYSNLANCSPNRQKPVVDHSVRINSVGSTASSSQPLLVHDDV
Experiment [9] deals with Mast/stem cell growth factor receptor Kit (Homo sapiens), P10721 [D816H]. The description is as §1.
The subject of experiment [10] is Mast/stem cell growth factor receptor Kit (Homo sapiens), P10721 [A829P]. The experiment is described as §1.
The target of experiment [11] is Mast/stem cell growth factor receptor Kit (Homo sapiens, UniProt P10721). The description is as §1.
Mast/stem cell growth factor receptor Kit, sequence (P10721 whole entry): as the sequence (P10721 whole entry V654A) above, with A654V counted along it
Experiment [12] concerns Mast/stem cell growth factor receptor Kit (Homo sapiens), P10721 [V559D,T670I]. The description is as §1.
Experiment [13] concerns Mast/stem cell growth factor receptor Kit (Homo sapiens), P10721 [D816V]. The experiment is described as §1.
Mast/stem cell growth factor receptor Kit (Homo sapiens), P10721 [D816V], sequence (P10721 whole entry D816V): as the sequence (P10721 whole entry V654A) above, with A654V, D816V counted along it
Experiment [14] concerns Mast/stem cell growth factor receptor Kit (Homo sapiens), P10721 [V559D]. Described as §1.
Mast/stem cell growth factor receptor Kit (Homo sapiens), P10721 [V559D], sequence (P10721 whole entry V559D): as the sequence (P10721 whole entry V654A) above, with V559D, A654V counted along it
In experiment [15] the target is Wee1-like protein kinase 2 (Homo sapiens) (UniProt P0C1S8). Description: Selectivity interaction (KinomeScan (DiscoverX)) EUB0000092b WEE2. To be noted: at 10 µM.
For experiment [16], the target named is Serine/threonine-protein kinase haspin (Homo sapiens, UniProt Q8TF76). Description: Selectivity interaction (Enzymatic assay) EUB0001550a GSG2.
Experiment [17] relates to Tyrosine-protein kinase ABL1 (Homo sapiens), P00519 [Q252H]. Description: Selectivity interaction (KinomeScan (DiscoverX)) EUB0000045b ABL1. To be noted: at 10 µM.
The target of experiment [18] is Interferon-induced, double-stranded RNA-activated protein kinase (Homo sapiens) (UniProt P19525). Description: Selectivity interaction (KinomeScan (DiscoverX)) EUB0000618a EIF2AK2. To be noted: at 10 µM.
The target in experiment [19] is T3, Activin receptor type-1 (Homo sapiens) (UniProt Q04771).
T3 sequence (whole entry): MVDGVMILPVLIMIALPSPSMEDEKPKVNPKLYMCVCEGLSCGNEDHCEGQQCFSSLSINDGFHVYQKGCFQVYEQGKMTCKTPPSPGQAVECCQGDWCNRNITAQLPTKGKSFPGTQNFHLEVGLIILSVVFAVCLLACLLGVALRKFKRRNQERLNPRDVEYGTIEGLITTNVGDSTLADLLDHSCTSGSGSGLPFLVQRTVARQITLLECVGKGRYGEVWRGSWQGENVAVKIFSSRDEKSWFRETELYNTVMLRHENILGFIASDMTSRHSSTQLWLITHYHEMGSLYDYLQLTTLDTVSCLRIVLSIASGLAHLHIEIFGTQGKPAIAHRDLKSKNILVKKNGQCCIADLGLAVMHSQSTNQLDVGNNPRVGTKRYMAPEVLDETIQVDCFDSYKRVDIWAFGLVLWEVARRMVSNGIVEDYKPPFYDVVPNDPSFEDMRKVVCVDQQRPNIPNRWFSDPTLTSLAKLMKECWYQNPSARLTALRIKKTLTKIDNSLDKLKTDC
Briefly: Selectivity interaction (KinomeScan (DiscoverX)) EUB0000595a ACVR1. The note with it: at 10 µM.

Experiment [20] concerns the target Platelet-derived growth factor receptor beta (Homo sapiens, UniProt P09619). Description: Selectivity interaction (KinomeScan (DiscoverX)) EUB0000595a PDGFRB. To be noted: at 10 µM.

Mast/stem cell growth factor receptor Kit (Homo sapiens), P10721 [V559D,V654A], sequence (P10721 whole entry V559D/V654A): as the sequence (P10721 whole entry V654A) above, with V559D counted along it

`CN(C)C/C=C/C(=O)Nc1ccc(C(=O)N2CCCC(Nc3ncc(Cl)c(-c4c[nH]c5ccccc45)n3)C2)cc1` (stereo not given) had a % of control in [1] of 91%.
Turning to `O=C(NOC[C@H](O)CO)c1ccc(F)c(F)c1Nc1ccc(I)cc1F`, the values for the % of control in [2] and in experiment [3] were 100% and 74%, respectively.
`COCCN1CCC(c2cc(CN(C)C(=O)c3cccc(Oc4ccccc4)c3)ccn2)CC1`: the % activity in experiment [4] (at 1 µM) is above 95%; in [4] (at 10 µM), above 85%.
`COc1cc(Nc2nc(C)cc(-c3cnn4nc(OC)ccc34)n2)cc(C(F)(F)F)c1` gave a % of control in [5] of 100%.
For the compound `C=CC(=O)Nc1cccc(C(=O)Nc2ccc(Nc3cc(-c4[nH]c(SC)nc4C)ccn3)cc2)c1`, the % of control came to 94% in experiment [6] (at 1 µM); 85% in [6] (at 5 µM); 107% in experiment [7] (at 1 µM); 98% in experiment [7] (at 5 µM); 103% in experiment [8] (at 1 µM); 80% in experiment [8] (at 5 µM). The % of control in experiment [9] (at 1 µM) is 91%; in experiment [9] (at 5 µM), 66%; in experiment [10] (at 1 µM) it was 68%; in experiment [10] (at 5 µM), 75%; in experiment [11] (at 1 µM) it was 98%; in experiment [11] (at 5 µM), 101%. The % of control turned out to be 96% in experiment [12] (at 1 µM); 77% in experiment [12] (at 5 µM); 87% in experiment [13] (at 1 µM); 55% in experiment [13] (at 5 µM); 102% in experiment [14] (at 1 µM); 94% in experiment [14] (at 5 µM).
With `CCC(=O)N1CCN(c2ccc(-n3c(=O)ccc4cnc5ccc(-c6cnc7ccccc7c6)cc5c43)cc2C(F)(F)F)CC1`, the % of control in experiment [15] was determined as 100%.
What is called IC50 is the concentration that inhibits the measured activity by half. The low end stands for greater potency in that assay, the high end for weaker potency in that assay. In [16], `CN(C)CC#Cc1ccc2[nH]c3c(c2c1)-c1nc(N)ncc1CCC3` showed an IC50 of 1400 nM.
`C=CC(=O)Nc1cc(-n2c(=O)ccc3cnc4ccc(-c5ccc(NS(C)(=O)=O)cc5)cc4c32)ccc1C` returned a % of control in [17] of 75%.
For `O[C@H]1CC[C@H](Nc2ncc3nc(Nc4c(F)cc(F)cc4F)n([C@H]4CCOC4)c3n2)CC1`, in [18], the % of control was 100%.
For `COCC(=O)NC/C=C/c1ccc2ncnc(Nc3ccc(Oc4ccc(C)nc4)c(C)c3)c2c1` [CP-724714], the results for the % of control in experiment [19] and in experiment [20] were 90% and 46%, respectively.
